According to publication PMC6468590, “Novel Flavivirus Antiviral That Targets the Host Nuclear Transport Importin α/β1 Heterodimer” (Cells, 2019):

Target: T1, IMPα2 (importin α, IMPα) (Mus musculus, UniProt P52293)
T1 construct: gene Kpna2; full-length His6-IMPα2 and IMPαΔIBB (residues 67–529, ARM repeat domain)
Assay: multi-wavelength analytical ultracentrifugation (co-sedimentation at […] nm), SYPRO orange thermal shift and CD; the IC50 is AlphaScreen inhibition of IMPα binding to IMPβ[…]

IC50: 10.3 ± 0.8 µM
Structure (SMILES): O=C1Nc2ccc(I)cc2/C1=C/c1cc(Br)c(O)c(Br)c1 [GW5074]
